In patent US10221163B2 (priority 2015, dated 2019):
Like-named read-outs stand apart in the source and are kept apart here.

Experiments:
VIM-1 = VIM-1 (Pseudomonas aeruginosa (strain ATCC 15692 / DSM 22644 / CIP 104116 / JCM 14847 / LMG 12228 / 1C / PRS 101 / PAO1), UniProt A0A0F7KYQ8); assay: biochemical; conditions: CCF2-FA substrate, 30 pM enzyme, 2 hours at 25° C.
How it was run: (§1)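 Semi-log dose-response curves, fitted with a 4-parameter model, gave IC50s. The underlying signal was CCF2-FA fluorescence following 2 hours at 25° C with enzyme, substrate and inhibitor combined.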

[1] = test system: Escherichia coli expressing NDM-1 (CLB30005, CLB30016); type: cell-based; conditions: with imipenem 1 μg/ml; for Escherichia coli expressing NDM-1 (CLB30016) MITC95: 95% inhibition of bacterial growth; for Escherichia coli MITC95: NDM-1 strain, 95% inhibition of growth
How it was run: (§2)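 Growth by absorbance after 22–24 h at 35°C defined the read-out, with imipenem fixed at 1 μg/ml alongside compound. Inocula came from overnight blood-agar colonies at 35°C, resuspended in saline and diluted 1:100 in 1.1×CAMHB.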

[2] = test system: Klebsiella pneumoniae expressing VIM-1 (IHMA599644); type: cell-based; conditions: for Klebsiella pneumoniae expressing VIM-1 (IHMA599644) MITC95: with imipenem 1 μg/ml, 95% inhibition of bacterial growth; for Klebsiella pneumoniae MITC95: VIM-1 strain IHMA599644, with imipenem 1 μg/ml, 95% inhibition of growth
How it was run: as §2

[3] = test system: Serratia marcescens expressing IMP-1 (CL5741); type: cell-based; conditions: for Serratia marcescens expressing IMP-1 (CL5741) MITC95: with imipenem 1 μg/ml, 95% inhibition of bacterial growth; for Serratia marcescens MITC95: IMP-1 strain CL5741, with imipenem 1 μg/ml, 95% inhibition of growth
How it was run: as §2

[4] = test system: Pseudomonas aeruginosa efflux+ (MB9798), IMP-1; type: cell-based; design: Concentration of metallo-β-lactamase inhibitor which restores susceptibility of efflux + (MB9798) strain to imipenem: unit not given here; conditions: C, D serine β-lactamase inhibitor closely related to relebactam; for P. aeruginosa expressing IMP-1, efflux + (MB9798) MITC95: concentration restoring susceptibility to imipenem at 2 μg/mL in the presence of a class A; for Concentration of metallo-β-lactamase inhibitor which restores susceptibility of efflux + (MB9798) strain to imipenem: imipenem at 2 μg/mL, in the presence of a class A
How it was run: (§3)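 Microbroth MIC tests in PAO1-background strains with fixed imipenem and/or ceftazidime, usually at the CLSI breakpoint, plus fixed class A/C β-lactamase inhibitor against AmpC. MBL inhibitor titrated; concentration restoring susceptibility recorded and compared as fold difference between efflux+ MB9798 and efflux− MB9799.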

[5] = test system: Pseudomonas aeruginosa MB9798 vs MB9799
How it was run: as §3

IMP-1 = IMP-1 (Serratia marcescens, UniProt P52699); assay: biochemical; type: biochemical; conditions: fluorescence assay, CCF2-FA substrate, 2 pM enzyme, 2 hours at 25° C.; read-out: IMP-1 IC50
How it was run: as §1

NDM-1 = NDM-1 (Klebsiella pneumoniae, UniProt C7C422); assay: biochemical; type: biochemical; conditions: fluorescence assay, CCF2-FA substrate, 1 pM enzyme, 2 hours at 25° C.; read-out: NDM-1 IC50
How it was run: as §1

[6] = test system: Pseudomonas aeruginosa efflux− (MB9799), IMP-1; type: cell-based; conditions: C, D serine β-lactamase inhibitor closely related to relebactam; for P. aeruginosa expressing IMP-1, efflux − (MB9799) MITC95: concentration restoring susceptibility to imipenem at 2 μg/mL in the presence of a class A; for Concentration of metallo-β-lactamase inhibitor which restores susceptibility of efflux − (MB9799) strain to imipenem: imipenem at 2 μg/mL, in the presence of a class A
How it was run: as §3

[7] = ratio MITC95 PA_9798/MITC95 PA_9799
[8] = fluorescence assay, read-out: VIM-1 IC50
[9] = fold difference between efflux+ (MB9798) and efflux− (MB9799) strains, imipenem at 2 μg/mL

IMP-1, sequence (P52699 whole entry, looked up, species assumed): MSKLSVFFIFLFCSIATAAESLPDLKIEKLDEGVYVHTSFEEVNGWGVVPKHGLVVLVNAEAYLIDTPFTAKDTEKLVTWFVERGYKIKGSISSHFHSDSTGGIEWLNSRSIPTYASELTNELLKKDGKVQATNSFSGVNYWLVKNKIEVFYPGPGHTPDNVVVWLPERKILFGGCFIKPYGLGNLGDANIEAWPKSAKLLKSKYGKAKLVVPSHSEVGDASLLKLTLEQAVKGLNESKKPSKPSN
NDM-1, sequence (C7C422 whole entry, looked up, species assumed): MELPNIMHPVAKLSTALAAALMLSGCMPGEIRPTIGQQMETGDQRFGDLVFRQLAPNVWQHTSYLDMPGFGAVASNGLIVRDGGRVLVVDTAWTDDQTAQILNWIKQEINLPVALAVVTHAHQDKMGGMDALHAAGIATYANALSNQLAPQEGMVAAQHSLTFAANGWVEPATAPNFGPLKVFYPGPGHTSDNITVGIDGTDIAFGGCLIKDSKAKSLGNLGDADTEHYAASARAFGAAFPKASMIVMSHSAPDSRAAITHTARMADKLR

Nc1nc2c(-c3ccc(S(=O)(=O)N[C@@H]4CN[C@H](CO)C4)c(S(N)(=O)=O)c3-c3nnn[nH]3)cccc2s1 [Example 80, 4-(2-amino-1,3-benzothiazol-4-yl)-N1-[(3S,5S)-5-(hydroxymethyl)pyrrolidin-3-yl]-3-(1H-tetrazol-5-yl)benzene-1,2-disulfonamide]
IC50 (VIM-1; VIM-1 IC50, fluorescence assay): 158 pM
Escherichia coli expressing NDM-1 (CLB30016) MITC95 [1]: 1.563 µM
Klebsiella pneumoniae expressing VIM-1 (IHMA599644) MITC95 [2]: 3.125 µM
Serratia marcescens expressing IMP-1 (CL5741) MITC95 [3]: 1.563 µM
P. aeruginosa expressing IMP-1, efflux + (MB9798) MITC95 [4]: 1.563 µM
Efflux ratio [5, 7]: 1.00
IC50 (IMP-1): 336 pM
IC50 (NDM-1): 48.8 pM
P. aeruginosa expressing IMP-1, efflux − (MB9799) MITC95 [6]: 1.563 µM

NS(=O)(=O)c1c(S(=O)(=O)N[C@@H]2CNC[C@@H]2O)ccc(-c2cccc3[nH]nnc23)c1-c1nn[nH]n1 [Example 412]
IC50 (VIM-1; [8]): 321 pM
Escherichia coli MITC95 [1]: 3.125 µM
Klebsiella pneumoniae MITC95 [2]: 6.25 µM
Serratia marcescens MITC95 [3]: 3.125 µM
Concentration of metallo-β-lactamase inhibitor which restores susceptibility of efflux + (MB9798) strain to imipenem [4]: 1.563
Efflux ratio [5, 9]: 0.50
IC50 (IMP-1): 2570 pM
IC50 (NDM-1): 108 pM
Concentration of metallo-β-lactamase inhibitor which restores susceptibility of efflux − (MB9799) strain to imipenem [6]: 3.125

NS(=O)(=O)c1ccc(-c2ccc(S(=O)(=O)N[C@@H]3CCNC3)c(S(N)(=O)=O)c2-c2nnn[nH]2)cc1 [Example 135, (R)-N4-(pyrrolidin-3-yl)-2-(1H-tetrazol-5-yl)-[1,1′-biphenyl]-3,4,4′-trisulfonamide]
IC50 (VIM-1; [8]): 107 pM
Escherichia coli expressing NDM-1 (CLB30016) MITC95 [1]: 1.563 µM
Klebsiella pneumoniae expressing VIM-1 (IHMA599644) MITC95 [2]: 1.563 µM
Serratia marcescens expressing IMP-1 (CL5741) MITC95 [3]: 1.563 µM
P. aeruginosa expressing IMP-1, efflux + (MB9798) MITC95 [4]: 0.7813 µM
Efflux ratio [5, 7]: 1.00
IC50 (IMP-1): 229 pM
IC50 (NDM-1): 136 pM
P. aeruginosa expressing IMP-1, efflux − (MB9799) MITC95 [6]: 0.7813 µM

N[C@@H]1CNC[C@@H]1NS(=O)(=O)c1ccc(-c2cccn3ccnc23)c(-c2nn[nH]n2)c1S(N)(=O)=O [Example 328, N1-((3S,4R)-4-aminopyrrolidin-3-yl)-4-(imidazo[1,2-a]pyridin-8-yl)-3-(2H-tetrazol-5-yl)benzene-1,2-disulfonamide]
IC50 (VIM-1; VIM-1 IC50, fluorescence assay): 165 pM
Escherichia coli MITC95 [1]: 0.7813 µM
Klebsiella pneumoniae MITC95 [2]: 3.125 µM
Serratia marcescens MITC95 [3]: 1.563 µM
P. aeruginosa expressing IMP-1, efflux + (MB9798) MITC95 [4]: 1.563 µM
Efflux ratio [5, 7]: 1.00
IC50 (IMP-1): 340 pM
IC50 (NDM-1): 140 pM
P. aeruginosa expressing IMP-1, efflux − (MB9799) MITC95 [6]: 1.563 µM

C[C@@H](N)CNS(=O)(=O)c1ccc(-c2ccc3nccn3c2)c(-c2nn[nH]n2)c1S(N)(=O)=O [Example 423]
IC50 (VIM-1; VIM-1 IC50, fluorescence assay): 180 pM
Escherichia coli MITC95 [1]: 0.3906 µM
Klebsiella pneumoniae MITC95 [2]: 1.563 µM
Serratia marcescens MITC95 [3]: 0.7813 µM
Concentration of metallo-β-lactamase inhibitor which restores susceptibility of efflux + (MB9798) strain to imipenem [4]: 3.125
Efflux ratio [5, 9]: 4.00
IC50 (IMP-1): 1150 pM
IC50 (NDM-1): 303 pM
Concentration of metallo-β-lactamase inhibitor which restores susceptibility of efflux − (MB9799) strain to imipenem [6]: 0.7813

CO[C@H]1CNC[C@@H]1NS(=O)(=O)c1ccc(-c2cccc3sc(N)nc23)c(-c2nnn[nH]2)c1S(N)(=O)=O.O=C(O)C(F)(F)F [Example 108, (3S,4S)-3-(4-(2-aminobenzo[d]thiazol-4-yl)-2-sulfamoyl-3-(1H-tetrazol-5-yl)phenylsulfonamido)-4-methoxypyrrolidin-1-ium 2,2,2-trifluoroacetate]
IC50 (VIM-1; [8]): 268 pM
Escherichia coli expressing NDM-1 (CLB30016) MITC95 [1]: 1.563 µM
Klebsiella pneumoniae expressing VIM-1 (IHMA599644) MITC95 [2]: 3.125 µM
Serratia marcescens expressing IMP-1 (CL5741) MITC95 [3]: 3.125 µM
P. aeruginosa expressing IMP-1, efflux + (MB9798) MITC95 [4]: 1.563 µM
Efflux ratio [5, 7]: 1.00
IC50 (IMP-1): 336 pM
IC50 (NDM-1): 51.2 pM
P. aeruginosa expressing IMP-1, efflux − (MB9799) MITC95 [6]: 1.563 µM

NCCNC(=O)c1cc(Cl)cc(-c2ccc(S(=O)(=O)NCCN)c(S(N)(=O)=O)c2-c2nn[nH]n2)c1N [Example 447, 2-Amino-N-(2-aminoethyl)-4′-(N-(2-aminoethyl)sulfamoyl)-5-chloro-3′-sulfamoyl-2′-(2H-tetrazol-5-yl)-[1,1′-biphenyl]-3-carboxamide]
IC50 (VIM-1; VIM-1 IC50, fluorescence assay): 180 pM
Escherichia coli MITC95 [1]: 0.7813 µM
Klebsiella pneumoniae MITC95 [2]: 1.563 µM
Serratia marcescens MITC95 [3]: 0.7813 µM
Concentration of metallo-β-lactamase inhibitor which restores susceptibility of efflux + (MB9798) strain to imipenem [4]: 1.563
Efflux ratio [5, 9]: 2.00
IC50 (IMP-1): 1600 pM
IC50 (NDM-1): 646 pM
Concentration of metallo-β-lactamase inhibitor which restores susceptibility of efflux − (MB9799) strain to imipenem [6]: 0.7813

NC(=O)[C@@H](N)CNS(=O)(=O)c1ccc(-c2cccc3[nH]c(N)nc23)c(-c2nn[nH]n2)c1S(N)(=O)=O [Example 189, (2S)-2-amino-3-(4-(2-amino-1H-benzo[d]imidazol-4-yl)-2-sulfamoyl-3-(2H-tetrazol-5-yl)phenylsulfonamido)propanamide]
IC50 (VIM-1; [8]): 216 pM
Escherichia coli expressing NDM-1 (CLB30016) MITC95 [1]: 0.7813 µM
Klebsiella pneumoniae expressing VIM-1 (IHMA599644) MITC95 [2]: 3.125 µM
Serratia marcescens expressing IMP-1 (CL5741) MITC95 [3]: 1.563 µM
P. aeruginosa expressing IMP-1, efflux + (MB9798) MITC95 [4]: 0.7813 µM
Efflux ratio [5, 7]: 0.50
IC50 (IMP-1): 615 pM
IC50 (NDM-1): 71.8 pM
P. aeruginosa expressing IMP-1, efflux − (MB9799) MITC95 [6]: 1.563 µM

NC(=O)c1ccc(-c2ccc(S(=O)(=O)N[C@@H]3CCNC3)c(S(N)(=O)=O)c2-c2nnn[nH]2)cc1 [Example 137, (R)-4′-(N-(pyrrolidin-3-yl)sulfamoyl)-3′-sulfamoyl-2′-(1H-tetrazol-5-yl)-[1,1′-biphenyl]-4-carboxamide]
IC50 (VIM-1; [8]): 157 pM
Escherichia coli expressing NDM-1 (CLB30016) MITC95 [1]: 3.125 µM
Klebsiella pneumoniae expressing VIM-1 (IHMA599644) MITC95 [2]: 3.125 µM
Serratia marcescens expressing IMP-1 (CL5741) MITC95 [3]: 3.125 µM
P. aeruginosa expressing IMP-1, efflux + (MB9798) MITC95 [4]: 0.7813 µM
Efflux ratio [5, 7]: 1.00
IC50 (IMP-1): 265 pM
IC50 (NDM-1): 126 pM
P. aeruginosa expressing IMP-1, efflux − (MB9799) MITC95 [6]: 0.7813 µM

Nc1nc2c(-c3ccc(S(=O)(=O)NCCN4CCNC(=O)C4)c(S(N)(=O)=O)c3-c3nnn[nH]3)cccc2s1 [Example 15, 4-(2-amino-1,3-benzothiazol-4-yl)-N1-[2-(3-oxopiperazin-1-yl)ethyl]-3-(1H-tetrazol-5-yl)benzene-1,2-disulfonamide]
IC50 (VIM-1; [8]): 394 pM
Escherichia coli expressing NDM-1 (CLB30016) MITC95 [1]: 50 µM
Klebsiella pneumoniae expressing VIM-1 (IHMA599644) MITC95 [2]: 25 µM
Serratia marcescens expressing IMP-1 (CL5741) MITC95 [3]: 12.5 µM
P. aeruginosa expressing IMP-1, efflux + (MB9798) MITC95 [4]: 12.5 µM
Efflux ratio [5, 7]: 1.00
IC50 (IMP-1): 451 pM
IC50 (NDM-1): 92.6 pM
P. aeruginosa expressing IMP-1, efflux − (MB9799) MITC95 [6]: 12.5 µM
